# Reference: patent US20250144223A1, “PROTEIN DEGRADATION COMPOUND BASED ON NAMPT TARGET PROTEIN AND APPLICATION THEREOF” (GLUETACS THERAPEUTICS (SHANGHAI) CO., LTD., priority 2021, published 2025)
# System: Jurkat
# Test: CellTiter-Glo Luminescent Cell Viability Assay, half inhibitory concentration (IC50) on tumor cell proliferation
# Type: cell-based
# Conditions: Homo sapiens, Jurkat cells, 72 h treatment
# Description: The tumor cells used herein were cultured in a cell culture medium at 37° C. in an incubator with 5% CO2, where the cell culture medium was supplemented with 10% FBS, as well as penicillin at a final concentration of 100 U/mL and streptomycin at a final concentration of 100 μg/mL. Prior to experimentation, all cells used were identified as correct cells by STR cells, and were negative for mycoplasma through routine testing.
# IC50 values of the compounds of the present disclosure (including the compounds in Table 1 and compounds of examples) were measured using the CellTiter-Glo® Luminescent Cell Viability Assay kit from Promega Corporation. Assay details are as follows: Cells were seeded in 100 μL RPMI1640 medium containing serum at a density of 20,000 cells/well. After 24 h, the inoculated cells were treated with the compounds of the present disclosure which were serially diluted. After the cells were treated with the compounds of the present disclosure for 72 h, the CellTiter-Glo® reagent was added to the culture medium for cell viability assessment according to the instructions provided with the kit. DMSO served as the negative control, and FK866 inhibitor was used as the positive control, both treated with the same protocol as the compounds of the present disclosure. The growth inhibition of the compounds of the present disclosure on cells was plotted by Prism Graphpad software, and the IC50 values of the compounds of the present disclosure were calculated therefrom.
row,Compound,IC50 [µM]
1,"O=C(/C=C/c1cccnc1)NCCCCC1CCN(C(=O)c2ccc(N3CCN(CCCCCCCSc4cccc5c4CN(C4CCC(=O)NC4=O)C5=O)CC3)cc2)CC1 (centres unmarked) [SIAIS630134, (E)-N-(4-(1-(4-(4-(7-((2-(2,6-dioxopiperidin-3-yl)-1-oxoisoindolin-4-yl)thio)heptyl)piperazin-1-yl)benzoyl)piperidin-4-yl)butyl)-3-(pyridin-3-yl)acrylamide]",0.00728
2,"O=C(/C=C/c1cccnc1)NCCCCC1CCN(C(=O)c2ccc(N3CCN(CCCCCCCCSc4cccc5c4CN(C4CCC(=O)NC4=O)C5=O)CC3)cc2)CC1 (centres unmarked) [SIAIS630135, (E)-N-(4-(1-(4-(4-(8-((2-(2,6-dioxopiperidin-3-yl)-1-oxoisoindolin-4-yl)thio)octyl)piperazin-1-yl)benzoyl)piperidin-4-yl)butyl)-3-(pyridin-3-yl)acrylamide]",0.00402
3,"O=C(/C=C/c1cccnc1)NCCCCC1CCN(C(=O)c2ccc(N3CCN(CCCCCCCCCCCSc4cccc5c4CN(C4CCC(=O)NC4=O)C5=O)CC3)cc2)CC1 (centres unmarked) [SIAIS630136, (E)-N-(4-(1-(4-(4-(11-((2-(2,6-dioxopiperidin-3-yl)-1-oxoisoindolin-4-yl)thio)undecyl)piperazin-1-yl)benzoyl)piperidin-4-yl)butyl)-3-(pyridin-3-yl)acrylamide]",0.0645
4,"Cc1ncsc1-c1ccc(CNC(=O)[C@@H]2C[C@@H](O)CN2C(=O)[C@@H](NC(=O)CCOCCOCCC(=O)N2CCN(c3ccc(C(=O)N4CCC(CCCCNC(=O)/C=C/c5cccnc5)CC4)cc3)CC2)C(C)(C)C)cc1 [SIAIS631011, (2S,4R)-1-((S)-3,3-dimethyl-2-(3-(2-(3-oxo-3-(4-(4-(4-(4-((E)-3-(pyridin-3-yl)acrylamido)butyl)piperidine-1-carbonyl)phenyl)piperazin-1-yl)propoxy)ethoxy)propanamido)butanoyl)-4-hydroxy-N-(4-(4-methylthiazol-5-yl)benzyl)pyrrolidine-2-carboxamide]",0.14
5,"O=C(/C=C/c1cccnc1)NCCCCN1CCN(C(=O)c2ccc(N3CCN(CCCCCC#Cc4cccc5c4CN(C4CCC(=O)NC4=O)C5=O)CC3)cc2)CC1 (centres unmarked) [SIAIS631045, (E)-N-(4-(4-(4-(4-(7-(2-(2,6-dioxopiperidin-3-yl)-1-oxoisoindolin-4-yl)hept-6-yn-1-yl)piperazin-1-yl)benzoyl)piperazin-1-yl)butyl)-3-(pyridin-3-yl)acrylamide]",0.08
6,"O=C(/C=C/c1cccnc1)NCCCCC1CCN(C(=O)c2ccc(N3CCN(CCSc4cccc5c4C(=O)N(C4CCC(=O)NC4=O)C5=O)CC3)cc2)CC1 (centres unmarked) [SIAIS631068, (E)-N-(4-(1-(4-(4-(2-((2-(2,6-dioxopiperidin-3-yl)-1,3-dioxoisoindolin-4-yl)thio)ethyl)piperazin-1-yl)benzoyl)piperidin-4-yl)butyl)-3-(pyridin-3-yl)acrylamide]",0.0744
7,"O=C(/C=C/c1cccnc1)NCCCCC1CCN(C(=O)c2ccc(N3CCN(CCCSc4cccc5c4C(=O)N(C4CCC(=O)NC4=O)C5=O)CC3)cc2)CC1 (centres unmarked) [SIAIS631069, (E)-N-(4-(1-(4-(4-(3-((2-(2,6-dioxopiperidin-3-yl)-1,3-dioxoisoindolin-4-yl)thio)propyl)piperazin-1-yl)benzoyl)piperidin-4-yl)butyl)-3-(pyridin-3-yl)acrylamide]",0.0712
8,"O=C(/C=C/c1cccnc1)NCCCCC1CCN(C(=O)c2ccc(N3CCN(CCCCSc4cccc5c4C(=O)N(C4CCC(=O)NC4=O)C5=O)CC3)cc2)CC1 (centres unmarked) [SIAIS631070, (E)-N-(4-(1-(4-(4-(4-((2-(2,6-dioxopiperidin-3-yl)-1,3-dioxoisoindolin-4-yl)thio)butyl)piperazin-1-yl)benzoyl)piperidin-4-yl)butyl)-3-(pyridin-3-yl)acrylamide]",0.0629
9,"O=C(/C=C/c1cccnc1)NCCCCC1CCN(C(=O)c2ccc(N3CCN(CCCCCSc4cccc5c4C(=O)N(C4CCC(=O)NC4=O)C5=O)CC3)cc2)CC1 (centres unmarked) [SIAIS631071, (E)-N-(4-(1-(4-(4-(5-((2-(2,6-dioxopiperidin-3-yl)-1,3-dioxoisoindolin-4-yl)thio)pentyl)piperazin-1-yl)benzoyl)piperidin-4-yl)butyl)-3-(pyridin-3-yl)acrylamide]",0.635
10,"O=C(/C=C/c1cccnc1)NCCCCC1CCN(C(=O)c2ccc(N3CCN(CCCCCCSc4cccc5c4C(=O)N(C4CCC(=O)NC4=O)C5=O)CC3)cc2)CC1 (centres unmarked) [SIAIS631072, (E)-N-(4-(1-(4-(4-(6-((2-(2,6-dioxopiperidin-3-yl)-1,3-dioxoisoindolin-4-yl)thio)hexyl)piperazin-1-yl)benzoyl)piperidin-4-yl)butyl)-3-(pyridin-3-yl)acrylamide]",0.063
11,"O=C(/C=C/c1cccnc1)NCCCCC1CCN(C(=O)c2ccc(N3CCN(CCCCCCCCSc4cccc5c4C(=O)N(C4CCC(=O)NC4=O)C5=O)CC3)cc2)CC1 (centres unmarked) [SIAIS631073, (E)-N-(4-(1-(4-(4-(8-((2-(2,6-dioxopiperidin-3-yl)-1,3-dioxoisoindolin-4-yl)thio)octyl)piperazin-1-yl)benzoyl)piperidin-4-yl)butyl)-3-(pyridin-3-yl)acrylamide]",0.0625
12,"O=C(/C=C/c1cccnc1)NCCCCC1CCN(C(=O)c2ccc(N3CCN(CCCCCCCSc4cccc5c4C(=O)N(C4CCC(=O)NC4=O)C5=O)CC3)cc2)CC1 (centres unmarked) [SIAIS631078, (E)-N-(4-(1-(4-(4-(7-((2-(2,6-dioxopiperidin-3-yl)-1,3-dioxoisoindolin-4-yl)thio)heptyl)piperazin-1-yl)benzoyl)piperidin-4-yl)butyl)-3-(pyridin-3-yl)acrylamide]",0.0622
13,"O=C(/C=C/c1cccnc1)NCCCCC1CCN(C(=O)c2ccc(N3CCN(C(=O)CCOCCNc4cccc5c4C(=O)N(C4CCC(=O)NC4=O)C5=O)CC3)cc2)CC1 (centres unmarked) [SIAIS631079, (E)-N-(4-(1-(4-(4-(3-(2-((2-(2,6-dioxopiperidin-3-yl)-1,3-dioxoisoindolin-4-yl)amino)ethoxy)propanoyl)piperazin-1-yl)benzoyl)piperidin-4-yl)butyl)-3-(pyridin-3-yl)acrylamide]",0.00732
14,"O=C(/C=C/c1cccnc1)NCCCCC1CCN(C(=O)c2ccc(N3CCN(CCCCCC#Cc4cccc5c4C(=O)N(C4CCC(=O)NC4=O)C5=O)CC3)cc2)CC1 (centres unmarked) [SIAIS631108, (E)-N-(4-(1-(4-(4-(7-(2-(2,6-dioxopiperidin-3-yl)-1,3-dioxoisoindolin-4-yl)hept-6-yn-1-yl)piperazin-1-yl)benzoyl)piperidin-4-yl)butyl)-3-(pyridin-3-yl)acrylamide]",0.0797
15,"O=C(/C=C/c1cccnc1)NCCCCC1CCN(C(=O)c2ccc(N3CCN(C(=O)CCOCCOCCNc4cccc5c4C(=O)N(C4CCC(=O)NC4=O)C5=O)CC3)cc2)CC1 (centres unmarked) [SIAIS631109, (E)-N-(4-(1-(4-(4-(3-(2-(2-((2-(2,6-dioxopiperidin-3-yl)-1,3-dioxoisoindolin-4-yl)amino)ethoxy)ethoxy)propanoyl)piperazin-1-yl)benzoyl)piperidin-4-yl)butyl)-3-(pyridin-3-yl)acrylamide]",0.0712
16,"O=C(/C=C/c1cccnc1)NCCCCC1CCN(C(=O)c2ccc(N3CCN(C(=O)COCCSc4cccc5c4C(=O)N(C4CCC(=O)NC4=O)C5=O)CC3)cc2)CC1 (centres unmarked) [SIAIS631111, (E)-N-(4-(1-(4-(4-(2-(2-((2-(2,6-dioxopiperidin-3-yl)-1,3-dioxoisoindolin-4-yl)thio)ethoxy)acetyl)piperazin-1-yl)benzoyl)piperidin-4-yl)butyl)-3-(pyridin-3-yl)acrylamide]",0.0643
17,"O=C(/C=C/c1cccnc1)NCCCCC1CCN(C(=O)c2ccc(N3CCN(C(=O)COCCOCCSc4cccc5c4C(=O)N(C4CCC(=O)NC4=O)C5=O)CC3)cc2)CC1 (centres unmarked) [SIAIS631112, (E)-N-(4-(1-(4-(4-(2-(2-(2-((2-(2,6-dioxopiperidin-3-yl)-1,3-dioxoisoindolin-4-yl)thio)ethoxy)ethoxy)acetyl)piperazin-1-yl)benzoyl)piperidin-4-yl)butyl)-3-(pyridin-3-yl)acrylamide]",0.0667
18,"O=C(/C=C/c1cccnc1)NCCCCC1CCN(C(=O)c2ccc(N3CCN(C(=O)COCCOCCOCCSc4cccc5c4C(=O)N(C4CCC(=O)NC4=O)C5=O)CC3)cc2)CC1 (centres unmarked) [SIAIS631113, (E)-N-(4-(1-(4-(4-(2-(2-(2-(2-((2-(2,6-dioxopiperidin-3-yl)-1,3-dioxoisoindolin-4-yl)thio)ethoxy)ethoxy)ethoxy)acetyl)piperazin-1-yl)benzoyl)piperidin-4-yl)butyl)-3-(pyridin-3-yl)acrylamide]",0.0681
19,"O=C(/C=C/c1cccnc1)NCCCCC1CCN(C(=O)c2ccc(N3CCN(C(=O)COCCOCCOCCOCCSc4cccc5c4C(=O)N(C4CCC(=O)NC4=O)C5=O)CC3)cc2)CC1 (centres unmarked) [SIAIS631114, (E)-N-(4-(1-(4-(4-(14-((2-(2,6-dioxopiperidin-3-yl)-1,3-dioxoisoindolin-4-yl)thio)-3,6,9,12-tetraoxatetradecanoyl)piperazin-1-yl)benzoyl)piperidin-4-yl)butyl)-3-(pyridin-3-yl)acrylamide]",0.0665
20,"O=C(/C=C/c1cccnc1)NCCCCC1CCN(C(=O)c2ccc(N3CCN(C(=O)COCCOCCOCCOCCOCCSc4cccc5c4C(=O)N(C4CCC(=O)NC4=O)C5=O)CC3)cc2)CC1 (centres unmarked) [SIAIS631115, (E)-N-(4-(1-(4-(4-(17-((2-(2,6-dioxopiperidin-3-yl)-1,3-dioxoisoindolin-4-yl)thio)-3,6,9,12,15-pentaoxaheptadecanoyl)piperazin-1-yl)benzoyl)piperidin-4-yl)butyl)-3-(pyridin-3-yl)acrylamide]",0.0742
